Test results taken from patent publication US20050186659A1, “Methods for protein purification” (priority 2004, published 2005).
Values joined by “and” are separate entries in the source; they are usually repeats but may differ in a detail not shown here. Identical values can stand only once.

Columns and labels:
11β-HSD1 [1] = molecular target: T1, 11β-HSD1 (Homo sapiens, UniProt P28845); test: Ki values for 11β-HSD1 (stated, no method given); format: biochemical; settings: range in words only
Target sequence in this assay (P28845 24-292): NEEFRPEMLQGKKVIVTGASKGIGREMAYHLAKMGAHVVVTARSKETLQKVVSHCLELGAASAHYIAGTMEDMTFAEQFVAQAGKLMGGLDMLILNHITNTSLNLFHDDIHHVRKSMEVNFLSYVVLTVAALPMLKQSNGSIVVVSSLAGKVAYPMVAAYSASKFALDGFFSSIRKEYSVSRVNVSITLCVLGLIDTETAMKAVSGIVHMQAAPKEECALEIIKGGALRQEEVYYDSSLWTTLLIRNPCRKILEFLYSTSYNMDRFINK

guinea pig 11β-HSD1 = molecular target: T2, guinea pig 11β-HSD1 (Cavia porcellus, UniProt Q6QLL4); test: GuHCl-induced inactivation (conformational stability) monitored by cortisol dehydrogenation activity; format: biochemical; settings: guinea pig enzyme, control (no addition) 0.51
T2 construct: the first 23 amino acid residues (19 for the rat variant) of the protein, which includes the distal N-terminus and the transmembrane domain, were omitted; His6 (N); made in house; host or cells: E. coli BL21(DE3), pET28a derivative, fermentor culture
Method: (§1) Stability measurements. The conformational stability was examined by monitoring GuHCl-induced solvent inactivation of 11β-HSD1. Protein solutions (5-10 μM) were incubated overnight at room temperature in various concentrations of GuHCl (0-2 M) buffered with 50 mM Tris-HCl, pH 8.0. The inactivation of the enzyme was monitored by the decrease in dehydrogenase activity (25 μM cortisol, 50 μM NADP^+) using the fluorimetric assay described above. The stability data were analyzed by nonlinear regression, fitting to the equation described by Santoro and Bolen (24) using the program GraFit, version 5.0 (Erithacus Software, Staines, UK). The midpoint concentration of inactivation, Cm, was determined from the ratio, ΔG^H2O/m, of the fitted parameters.

11β-HSD1 [2] = molecular target: T1, 11β-HSD1; test: as above; format: biochemical; set-up: the first 23 amino acid residues (19 for the rat variant) of the protein, which includes the distal N-terminus and the transmembrane domain, were omitted; made in house; host or cells: E. coli BL21(DE3), pET28a derivative, co-expression of GroEL/ES; settings: human enzyme, control (no addition) 0.25
Method: FIG. 4 is a graph depicting inactivation of recombinant human 11β-HSD1-catalyzed cortisol dehydrogenation with GuHCl. Protein concentration was approximately 5 μM in 50 mM Tris-HCl, pH 8.0. Solutions were exposed to denaturant, and protected by additives as indicated, for 16-18 h at 4° C. (∘) no additives; (□) 50 μM NADP^+; (□) BVT.24829 inhibitor and 50 μM NADP^+.
as §1
Target sequence in this assay (P28845 with tags, fused parts or gaps): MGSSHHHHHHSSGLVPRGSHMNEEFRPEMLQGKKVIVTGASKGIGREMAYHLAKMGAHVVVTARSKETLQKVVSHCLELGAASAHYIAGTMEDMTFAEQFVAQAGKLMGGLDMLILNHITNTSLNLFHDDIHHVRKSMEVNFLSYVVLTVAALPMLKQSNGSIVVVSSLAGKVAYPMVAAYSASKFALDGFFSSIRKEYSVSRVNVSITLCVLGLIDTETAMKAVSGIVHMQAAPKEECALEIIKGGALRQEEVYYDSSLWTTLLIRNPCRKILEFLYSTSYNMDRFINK

11β-HSD1 [3] = molecular target: T1, 11β-HSD1; test: Active site titration, cortisol dehydrogenation by 11β-HSD1 with increasing inhibitor; format: biochemical; set-up: the first 23 amino acid residues (19 for the rat variant) of the protein, which includes the distal N-terminus and the transmembrane domain, were omitted; made in house; host or cells: E. coli BL21(DE3), pET28a derivative, co-expression of GroEL/ES; settings: dehydrogenase reaction, 50 μM cortisol, 100 μM NADP+; fitted to Morrison equation; read-out: Ki^app
Method: FIG. 3 is a graph depicting active site titration of highly purified, homogenous human 11β-HSD1. Fractional velocities (vi/v0) of cortisol dehydrogenation by 11β-HSD1 were determined in presence of increasing amounts of the selective and potent inhibitor BVT.24829. […] Total protein concentration was determined by amino acid analysis (triplicate measurements) assuming a molecular mass of 31.9 kDa for the His-tagged enzyme.
Enzyme activity measurements. The dehydrogenase activity of 11β-HSD1 was assayed at 25° C. in 50 mM Tris/Cl, pH 7.4, using 50 μM cortisol and 100 μM NADP^+, with a K2 spectrofluorimeter (ISS, Champaign, Ill.). The excitation and emission wavelengths were 340 nm and 460 nm, respectively. To ensure unambiguous initial rate measurements, the enzyme addition was adjusted to give a linear fluorescence increase for at least the first 2 min of reaction. Reaction rates were calculated before and after the addition of purified 11β-HSD1 to give enzymatic rates of NADP^+ reduction. The relationship between the increase of fluorescence and the rate of NADP^+ reduction was established by generating a calibration curve using freshly prepared solutions of NADPH (0-25 μM). […] Substrate and product were monitored by UV absorbance at 240 nm and concentrations were calculated by referral to corresponding calibration curves. […]
Target sequence in this assay (P28845 with tags, fused parts or gaps): as above

11β-HSD1 [4] = molecular target: T1, 11β-HSD1; test: Yield of soluble recombinant 11β-HSD1 expressed in E. coli BL21(DE3), SDS-PAGE of cleared lysate; set-up: the first 23 amino acid residues (19 for the rat variant) of the protein, which includes the distal N-terminus and the transmembrane domain, were omitted; made in house; host or cells: E. coli BL21(DE3), pET28a derivative, co-expression of GroEL/ES; settings: GroEL/ES co-overexpression in combination with inhibitor in growth medium; estimated by SDS-PAGE
From the text: FIGS. 1A and 1B depict expression of soluble 11β-HSD1 as analyzed by SDS-PAGE. Cleared lysates from induced cultures of BL21(DE3) containing pET28a derivatives for expression of human (FIG. 1A) and rat (FIG. 1B) 11β-HSD1. Lane 1, SeeBlue Plus2 pre-stained protein standard. lane 2, overexpression of 11β-HSD1; lane 3, co-overexpression of 11β-HSD1 and GroEL/ES; lane 4, overexpression of 11β-HSD1 in presence of the inhibitor BVT.24829; lane 5, co-overexpression of 11β-HSD1 and GroEL/ES in presence of BVT.24829.
Two different strategies were employed to optimize production of soluble 11β-HSD1. For expression of the human and rat variant, the cells were grown in shake flasks using Terrific Broth medium supplemented with 50 μg/ml kanamycin and 34 μg/ml chloramphenicol. To increase the yield of soluble human and rat 11β-HSD1, the BL21(DE3) cells were co-transformed with the plasmid pBV530, harboring the genes for the E. coli chaperonin GroEL/ES under control of the araBAD promoter. The cells were then grown at 25° C. to a cell density corresponding to an A600 value of 0.5-1.0. To induce expression of GroEL/ES, arabinose was added to a final concentration of 0.05%. 45-60 minutes after induction of the chaperonin, 0.2 mM isopropyl-β-D-thiogalactoside (IPTG) was added to initiate production of 11β-HSD1. […]
Target sequence in this assay (P28845 with tags, fused parts or gaps): as above

T2 sequence (Q6QLL4 with tags, fused parts or gaps): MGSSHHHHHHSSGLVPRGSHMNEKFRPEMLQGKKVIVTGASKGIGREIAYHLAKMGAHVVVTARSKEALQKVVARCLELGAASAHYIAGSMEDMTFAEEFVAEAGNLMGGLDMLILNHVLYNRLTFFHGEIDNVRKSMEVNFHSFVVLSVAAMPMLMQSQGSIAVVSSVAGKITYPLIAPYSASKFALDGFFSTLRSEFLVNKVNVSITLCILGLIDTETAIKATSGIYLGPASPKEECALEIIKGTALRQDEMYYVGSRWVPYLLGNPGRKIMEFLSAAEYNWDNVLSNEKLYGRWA

Cc1c(Cl)cccc1S(=O)(=O)Nc1nc(CC(=O)N2CCN(C)CC2)cs1 [BVT.2733, 3-Chloro-2-methyl-N-{4-[2-(4-methyl-1-piperazinyl)-2-oxoethyl]-1,3-thiazol-2-yl}benzenesulfonamide]
Ki values for 11β-HSD1 (11β-HSD1 [1]): micromolar range

Cc1c(Cl)cccc1S(=O)(=O)Nc1nc(CCN2CCOCC2=O)cs1 [BVT.3498, 3-chloro-2-methyl-N-{4-[2-(3-oxo-4-morpholinyl)ethyl]-1,3-thiazol-2-yl}benzenesulfonamide]
Ki values for 11β-HSD1 (11β-HSD1 [1]): nanomolar range

CCCc1ccc(S(=O)(=O)Nc2ccsc2C(=O)N(CC)CC)cc1 [BVT.4584, N,N-diethyl-(3-{[(4-propylphenyl)sulfonyl]amino}thien-2-yl)carboxamide]
Ki values for 11β-HSD1 (11β-HSD1 [1]): micromolar range
midpoint concentration, Cm, for GuHCl-induced inactivation (guinea pig 11β-HSD1; 25 μM inhibitor + cofactor 50 μM NADP+): 1.0 M and 0.98 M
midpoint concentration, Cm, for GuHCl-induced inactivation (guinea pig 11β-HSD1; 25 μM inhibitor added): 0.75 M

Cc1sc(NS(=O)(=O)c2cccc(Cl)c2C)nc1CCN1CCOCC1=O [BVT.24829, 3-chloro-2-methyl-N-{5-methyl-4-[2-(3-oxo-4-morpholinyl)ethyl]-1,3-thiazol-2-yl}benzenesulfonamide]
Ki values for 11β-HSD1 (11β-HSD1 [1]): nanomolar range
midpoint concentration, Cm, for GuHCl-induced inactivation (11β-HSD1 [2]; inhibitor + cofactor 50 μM NADP+): 0.7 M and 0.71 M
midpoint concentration, Cm, for GuHCl-induced inactivation (11β-HSD1 [2]; one equivalent of inhibitor added): 0.51 M
Ki (11β-HSD1 [3]): 32 ± 1 nM
improvement of yield of soluble human 11β-HSD1 (11β-HSD1 [4]): approximately 60 fold
